From patent publication US20260265754A1, “CHK1-TARGETING SIRNAS CHEMICALLY MODIFIED WITH GEMCITABINE” (Sirnaomics, Inc., priority 2024, published 2026)
Structures can show the parent of a compound that is named as a salt. d = 2'-deoxy (DNA); m = 2'-O-methyl; f = 2'-fluoro

What was measured:
[1] = system: MiaPaCa-2 (pancreatic cancer) cells; assay: Cell viability assay (CellTiter-Glo), lipofectamine transfection, MiaPaCa-2; type: cell-based; conditions: for Activity/efficacy in reducing cell viability: MiaPaCa-2 cells, FIG. 1; for Improvement of dose response over gemcitabine alone: MiaPaca2 cells
Description: All cell lines were obtained from ATCC (Rockville, MD). Cells were cultured in standard media supplemented with 10% FBS: Panc 10.05, H1299 and H358 in RPMI-1640 Medium, MiaPaCa-2, HT29 and MDA-MB-231 in DMEM, LS180 in EMEM. All media were obtained from ATCC (Rockville, MD). Cells were seeded in 384-well plates at a density of 0.3×10^3 to 1×10^3 cells/well. On the next day, cells were treated with serially diluted gemcitabine or siRNAs delivered by Lipofectamine RNAiMAX (Life Technologies, Carlsbad, CA). Ninety-six (96) hours after addition of gemcitabine or transfection reagent, the number of viable cells was determined using CellTiter-Glo(R)-2.0 reagent (Promega, Madison, WI) by measuring luminescent signal on a Cytation 5 plate reader (BioTek Inc, Winooski, VT). All values were compared to values generated for cells treated with non-silencing (NS) siRNA or to non-treated control and reported as the percentage cell viability. Values represent the mean±SD (n=4). All values were normalized to values generated for cells treated with a non-silencing siRNA and reported as the percentage cell viability. Calculation ofEC50 values. The EC50 values of the Gemcitabine, or Gemcitabine-modified siRNAs, (half-maximal effective concentration) were derived from a sigmoidal dose-response (variable slope) curve using GraphPad Prism 10.0.2(232) software (GraphPad Software, San Diego, Ca). Combination index (CI) calculation. […] CI=([…])2, where (Dx)1 and (Dx)2 are the doses of drug 1 and drug 2, alone, inhibiting 50%, whereas (D1) is the dose of drug 1 in combination, and (D2) the dose of drug 2 in combination that gives the experimentally observed 50% inhibition. These siRNA constructs were tested for their ability to reduce viability of pancreatic cancer using Miapaca2 cells after lipofectamine transfection of the siRNAs at varying concentrations. All of the constructs could inhibit the viability of these cells by 100% at concentrations below 100 nM. The contribution of the gemcitabine within the constructs was studied by making and evaluating constructs lacking the gemcitabine.

MDA-MB-231 (TNBC) cells = assay: Cell viability assay (CellTiter-Glo), lipofectamine transfection, MDA-MB-231; type: cell-based; conditions: MDA-MB-231 cells, FIG. 2K
Description: (§1) All cell lines were obtained from ATCC (Rockville, MD). Cells were cultured in standard media supplemented with 10% FBS: Panc 10.05, H1299 and H358 in RPMI-1640 Medium, MiaPaCa-2, HT29 and MDA-MB-231 in DMEM, LS180 in EMEM. All media were obtained from ATCC (Rockville, MD). Cells were seeded in 384-well plates at a density of 0.3×10^3 to 1×10^3 cells/well. On the next day, cells were treated with serially diluted gemcitabine or siRNAs delivered by Lipofectamine RNAiMAX (Life Technologies, Carlsbad, CA). Ninety-six (96) hours after addition of gemcitabine or transfection reagent, the number of viable cells was determined using CellTiter-Glo(R)-2.0 reagent (Promega, Madison, WI) by measuring luminescent signal on a Cytation 5 plate reader (BioTek Inc, Winooski, VT). All values were compared to values generated for cells treated with non-silencing (NS) siRNA or to non-treated control and reported as the percentage cell viability. Values represent the mean±SD (n=4). All values were normalized to values generated for cells treated with a non-silencing siRNA and reported as the percentage cell viability. Calculation ofEC50 values. The EC50 values of the Gemcitabine, or Gemcitabine-modified siRNAs, (half-maximal effective concentration) were derived from a sigmoidal dose-response (variable slope) curve using GraphPad Prism 10.0.2(232) software (GraphPad Software, San Diego, Ca).

[2] = system: OVCAR-3 (ovarian cancer) cells; assay: Cell viability assay, lipofectamine transfection, OVCAR-3; type: cell-based; conditions: OVCAR-3 cells, FIG. 2L
Description: as §1, with “Cells” for “All cell lines were obtained from ATCC (Rockville, MD). Cells were cultured in standard media supplemented with 10% FBS: Panc 10.05, H1299 and H358 in RPMI-1640 Medium, MiaPaCa-2, HT29 and MDA-MB-231 in DMEM, LS180 in EMEM. All media were obtained from ATCC (Rockville, MD). Cells”

[3] = PNP particle size and zeta potential by dynamic light scattering; type: physicochemical; parameters: Nanoparticle size: unit not given here; conditions: for Nanoparticle size: siRNA formulated with HKP(+H), dynamic light scattering
Description: To test the efficacy of the products in vivo siRNAs (non-silencing siRNA (Control; NS), and PGN6) were formulated with a branched histidine lysine polymer (HKP (+H)) to form peptide nanoparticle (PNP) formulations were prepared using a microfluidic mixing system with a staggered herringbone patterned mixer (Precision NanoSystems, Vancouver, BC, Canada). HKP(+H) stock was prepared in water and diluted to appropriate concentrations. PolyGem siRNA or non-silencing (NS) siRNA stocks were prepared in water. The HKP(+H) and siRNA were mixed at a volume ratio of 1:1 at 8-10 mL/min total flow rate. Formulations were incubated for 30 min at room temperature. Particle size and zeta potential were then determined by dynamic light scattering with a Zetasizer Ultra (Malvern Panalytical, MA). A gel retardation assay was used to evaluate the efficiency of complex formation. Briefly, pre-formed PNPs were mixed with RNA loading dye and applied to 2% agarose gel. The gel was run in 0.5×TBE for 15 min. Electrophoretic mobility of the siRNA-nanoparticles was analyzed on a gel imaging system.

H358 cells (KRAS G12C) = assay: Cell viability assay (CellTiter-Glo), lipofectamine transfection, H358; type: cell-based
Description: (§2) All cell lines were obtained from ATCC (Rockville, MD). Cells were cultured in standard media supplemented with 10% FBS: Panc 10.05, H1299 and H358 in RPMI-1640 Medium, MiaPaCa-2, HT29 and MDA-MB-231 in DMEM, LS180 in EMEM. All media were obtained from ATCC (Rockville, MD).
(§3) Cells were seeded in 384-well plates at a density of 0.3×10^3 to 1×10^3 cells/well. On the next day, cells were treated with serially diluted gemcitabine or siRNAs delivered by Lipofectamine RNAiMAX (Life Technologies, Carlsbad, CA). Ninety-six (96) hours after addition of gemcitabine or transfection reagent, the number of viable cells was determined using CellTiter-Glo(R)-2.0 reagent (Promega, Madison, WI) by measuring luminescent signal on a Cytation 5 plate reader (BioTek Inc, Winooski, VT). All values were compared to values generated for cells treated with non-silencing (NS) siRNA or to non-treated control and reported as the percentage cell viability. Values represent the mean±SD (n=4). All values were normalized to values generated for cells treated with a non-silencing siRNA and reported as the percentage cell viability.
(§4) Calculation ofEC50 values. The EC50 values of the Gemcitabine, or Gemcitabine-modified siRNAs, (half-maximal effective concentration) were derived from a sigmoidal dose-response (variable slope) curve using GraphPad Prism 10.0.2(232) software (GraphPad Software, San Diego, Ca). […]

H2030 (G12C) cells = assay: Cell viability assay, H2030; type: cell-based
Description: as §1, with “Cells” for “All cell lines were obtained from ATCC (Rockville, MD). Cells were cultured in standard media supplemented with 10% FBS: Panc 10.05, H1299 and H358 in RPMI-1640 Medium, MiaPaCa-2, HT29 and MDA-MB-231 in DMEM, LS180 in EMEM. All media were obtained from ATCC (Rockville, MD). Cells”

A549 (G12S) cells = assay: Cell viability assay, A549; type: cell-based
Description: as §1, with “Cells” for “All cell lines were obtained from ATCC (Rockville, MD). Cells were cultured in standard media supplemented with 10% FBS: Panc 10.05, H1299 and H358 in RPMI-1640 Medium, MiaPaCa-2, HT29 and MDA-MB-231 in DMEM, LS180 in EMEM. All media were obtained from ATCC (Rockville, MD). Cells”

H1299 (KRAS wt) cells = assay: Cell viability assay (CellTiter-Glo), lipofectamine transfection, H1299; type: cell-based
Description: as §2, §3, §4

PGN7S (sense AAGAAAGAGAUCUGUAUCAAU; antisense AUUGAUACAGAUCUCUUUCUUCCDUDU; gemcitabine nucleotides; phosphorothioates; 5' LS on antisense; modified_base 1 OTHER; 2'-O-methyl adenosine; modified_base 9 OTHER; 2'-fluoro-guanosine; modified_base 15 OTHER; 2'-fluorouracil; modified_base 21 OTHER; modified_base 16 OTHER; modified_base 6 OTHER; modified_base 17 OTHER; modified_base 19 OTHER; modified_base 5 OTHER; m; modified_base 3 um; modified_base 4 gm; modified_base 7 OTHER; 2)
Activity/efficacy in reducing cell viability [1]: weaker activity than either PGN6 or PGN7

PGN6: Chk1-targeting siRNA, 2′OMe/2′-fluoro modified, four gemcitabine nucleosides; SEQ ID Nos. 3-4 (chain 1 AAGAAAGAGAUUCGUAUCAAU; chain 2 AUUGAUACAGAUCUCUUUCUUCCUU; 2'-OMe/2'-F modified, four gemcitabine nucleosides, full pattern not given here)
Improvement of dose response over gemcitabine alone [1]: 100 fold | Activity/efficacy in reducing cell viability (MDA-MB-231 (TNBC) cells): greater potency | Activity/efficacy in reducing cell viability [2]: greater potency | Zeta potential ([3]; siRNA formulated in HKP(+H)): 35.8 mV | Nanoparticle size [3]: 86.7

PGN7: Chk1-targeting siRNA, 2′OMe/2′-fluoro modified, four gemcitabine nucleosides; SEQ ID Nos. 5-6 (chain 1 AAGAAAGAGAUCUGUAUCAAU; chain 2 AUUGAUACAGAUCUCUUUCUUCCUU; 2'-OMe/2'-F modified, four gemcitabine nucleosides, full pattern not given here)
Improvement of dose response over gemcitabine alone [1]: 100 fold | IC50 (H358 cells (KRAS G12C)): ~1 nM | IC50 (H2030 (G12C) cells): 3 nM | IC50 (A549 (G12S) cells): ~6 nM | IC50 (H1299 (KRAS wt) cells): ~6 nM | Activity/efficacy in reducing cell viability (MDA-MB-231 (TNBC) cells): greater potency | Activity/efficacy in reducing cell viability [2]: greater potency

Nc1ccn([C@@H]2O[C@H](CO)[C@@H](O)C2(F)F)c(=O)n1 [gemcitabine, 2′-deoxy-2′,2′-difluorocytidine monohydrochloride]
IC50 ([1]; Homo sapiens, MIA PaCa-2, MiaPaca-2 cells, 96 h, free gemcitabine or siRNA by lipofectamine): > 10 nM

PGN7 (no Gem): Modified Chk1 siRNA as PGN7 lacking gemcitabine; SEQ ID Nos. 9-10 (chain 1 AAGAAAGAGAUCUGUAUCAAU; chain 2 AUUGAUACAGAUCUCUUUCUUTT; chain 1: sugars from the 5' end mmmmmmfmfffffmfmffmmf, backbone not given here; chain 2: sugars from the 5' end mfmmmfmmmmmfmfmfmfmfmdd, backbone not given here; further chemistry not fully specified)
Activity/efficacy in reducing cell viability [1]: did not show good efficacy at higher concentrations

PGN6 (no Gem): Modified Chk1 siRNA as PGN6 lacking gemcitabine; SEQ ID Nos. 7-8 (chain 1 AAGAAAGAGAUCUGUAUCAAU; chain 2 AUUGAUACAGAUCUCUUUCUUTT; chain 1: sugars from the 5' end mmmmmmfmffffmmmmmfmmm, backbone not given here; chain 2: sugars from the 5' end mfmmmfmmmmmmmfmffffffdd, backbone not given here; further chemistry not fully specified)
Activity/efficacy in reducing cell viability [1]: did not show good efficacy at higher concentrations

Non-Silencing: Non-silencing siRNA control; SEQ ID Nos. 1-2 (chain 1 CGAGCAGGGUAUCGACGAUUACAAA; chain 2 UUUGUAAUCGUCGAUACCCUGCUCG; RNA, backbone not given here; listed as Homo sapiens) [reference compound]
Nanoparticle size [3]: 82.6
